Test results taken from ChEMBL document CHEMBL4834430, “Design and Structure-Activity Relationships of Isothiocyanates as Potent and Selective N-Acylethanolamine-Hydrolyzing Acid Amidase Inhibitors” (J Med Chem, 2021).
The source made the active and inactive calls. The rule behind the calls is not given here.

How the values were obtained:
[1] = target: T1, N-acylethanolamine-hydrolyzing acid amidase (Homo sapiens, UniProt Q02083); assay: Inhibition of human NAAA using N-(4-methyl coumarin)-palmitamide as fluorogenic substrate preincubated for 90 mins followed by substrate addition by fluorescence assay
T1 sequence (Q02083 whole entry): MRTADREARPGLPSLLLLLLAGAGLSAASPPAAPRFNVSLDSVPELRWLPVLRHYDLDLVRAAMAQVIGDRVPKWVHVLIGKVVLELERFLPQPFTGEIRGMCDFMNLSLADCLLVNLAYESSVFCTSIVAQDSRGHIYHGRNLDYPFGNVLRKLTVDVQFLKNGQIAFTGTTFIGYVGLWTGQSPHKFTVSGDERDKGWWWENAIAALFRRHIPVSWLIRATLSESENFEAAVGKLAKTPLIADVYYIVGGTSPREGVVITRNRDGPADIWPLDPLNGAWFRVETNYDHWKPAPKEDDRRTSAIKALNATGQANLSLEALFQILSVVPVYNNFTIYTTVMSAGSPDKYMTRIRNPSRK

[2] = Half life in mouse liver microsomes at 1 uM in presence of NADPH by LC-MS/MS analysis; format: ADME, Microsome
[3] = target: T2, Cathepsin K (Homo sapiens) (UniProt P43235); assay: Inhibition of recombinant human Cathepsin K at 1 uM using Z-Phe-Arg-AMC as fluorogenic substrate preincubated for 120 mins followed by substrate addition by fluorescence assay
T2 sequence (whole entry): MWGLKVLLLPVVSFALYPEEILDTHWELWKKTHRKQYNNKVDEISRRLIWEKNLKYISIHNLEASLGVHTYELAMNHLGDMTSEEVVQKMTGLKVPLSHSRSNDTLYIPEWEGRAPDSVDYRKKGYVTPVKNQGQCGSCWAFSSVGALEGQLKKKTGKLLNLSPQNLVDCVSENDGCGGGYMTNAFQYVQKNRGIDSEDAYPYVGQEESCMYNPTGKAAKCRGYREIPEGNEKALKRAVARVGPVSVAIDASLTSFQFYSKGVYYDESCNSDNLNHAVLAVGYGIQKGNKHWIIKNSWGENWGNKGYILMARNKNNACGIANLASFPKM

[4] = Half life in rat liver microsomes at 1 uM in presence of NADPH by LC-MS/MS analysis; format: ADME, Microsome
[5] = Half life in human liver microsomes at 1 uM in presence of NADPH by LC-MS/MS analysis; format: ADME, Microsome
[6] = Drug concentration in plasma of CD-1 mouse at 8 mg/kg, po administered as single cassette dose measured after 30 mins; format: ADME, organism-based
[7] = Drug concentration in brain of CD-1 mouse at 2 mg/kg, iv administered as single cassette dose measured after 15 mins; format: ADME, organism-based; conditions: read-out: Ct
[8] = Drug concentration in plasma of CD-1 mouse at 8 mg/kg, po administered as single cassette dose measured after 60 mins; format: ADME, organism-based
[9] = Drug concentration in plasma of CD-1 mouse at 2 mg/kg, iv administered as single cassette dose measured after 15 mins; format: ADME, organism-based
[10] = target: T3, N-acylethanolamine-hydrolyzing acid amidase (Homo sapiens) (UniProt Q02083); assay: Inhibition of human NAAA at 1 uM using N-(4-methyl coumarin)-palmitamide as fluorogenic substrate preincubated for 90 mins followed by substrate addition by fluorescence assay relative to control
T3 sequence (whole entry): T1 sequence (Q02083 whole entry)

Cathepsin K = target: T4, Cathepsin K (Homo sapiens, UniProt P43235); assay: Inhibition of recombinant human Cathepsin K using Z-Phe-Arg-AMC as fluorogenic substrate preincubated for 120 mins followed by substrate addition by fluorescence assay
T4 sequence (P43235 whole entry): T2 sequence (whole entry)

[11] = target: T3, N-acylethanolamine-hydrolyzing acid amidase (Homo sapiens); assay: Covalent inhibition of human NAAA assessed as ratio of Kinact/Ki
[12] = target: T2, Cathepsin K (Homo sapiens); assay: Inhibition of recombinant human Cathepsin K at 100 nM using Z-Phe-Arg-AMC as fluorogenic substrate preincubated for 120 mins followed by substrate addition by fluorescence assay relative to control

In the case of COc1ccc(-c2ccc(C(C)O[C@H]3C[C@@H](N=C=S)C3)c(F)c2)cc1F (stereo partly drawn), the IC50 [1] is reported as 0.0146 µM.
Cc1ccc(-c2ccc(CO[C@H]3C[C@H](N=C=S)C3)cc2)cc1 showed an IC50 [1] of 0.58 µM.
In the case of COc1ccc(-c2ccc(S(=O)(=O)N[C@H]3C[C@@H](N=C=S)C3)cc2)cc1F, the half-life at 1 µM [2] is reported as 6 min, the inhibition [3] is reported as “inactive” and the IC50 [1] is reported as 0.0032 µM. The half-life at 1 µM [4] was 6 min and the half-life at 1 µM [5] was 8 min.
In the case of COc1ccc(-c2ccc(C(=O)N[C@H]3C[C@@H](N=C=S)C3)nc2)cc1F, the half-life at 1 µM [2] is reported as 14 min, the inhibition [3] is reported as “inactive” and the concentration at 0.5 h [6] is reported as 0.011 µg/mL. The concentration at 0.25 h [7] was 690 ng/g, the concentration at 1 h [8] was 0.008 µg/mL and the IC50 [1] was 0.0266 µM. The concentration at 0.25 h [9] was 0.264 µg/mL, the half-life at 1 µM [4] was 8.6 min and the half-life at 1 µM [5] was 13 min.
Work on COc1ccc(C2CC(C(=O)N[C@H]3C[C@@H](N=C=S)C3)C2)cc1 (stereo partly drawn) yielded an IC50 [1] of 0.0559 µM.
In the case of Fc1cc(-c2ccc3c(c2)OCC3)ccc1CO[C@H]1C[C@@H](N=C=S)C1, the IC50 [1] is reported as 0.0593 µM.
COc1ccc(-c2ccc(CO[C@H]3CC[C@@H](N=C=S)C3)nc2)cc1F (single isomer, unassigned) gave an IC50 [1] of 1.45 µM.
Work on CS(=O)(=O)c1ccc(-c2ccc(C(=O)N[C@H]3C[C@@H](N=C=S)C3)nc2)cc1 yielded an inhibition [10] of 41%.
In the case of FC1(F)Oc2ccc(-c3ccc(CO[C@H]4C[C@@H](N=C=S)C4)nc3)cc2O1, the IC50 [1] is reported as 0.171 µM.
Work on COc1ccc(CCCCCC(=O)N[C@H]2C[C@@H](N=C=S)C2)cc1 yielded an IC50 [1] of 0.0225 µM.
COc1ccc(-c2ccc(CO[C@H]3C[C@@H](N=C=S)C3)nc2)nc1 gave an IC50 [1] of 0.0304 µM.
For Fc1cc(-c2ccc(OC(F)(F)F)c(F)c2)ccc1CO[C@H]1C[C@@H](N=C=S)C1, the half-life at 1 µM [2] was 2.9 min, the IC50 (Cathepsin K) was 0.0586 µM and the concentration at 0.5 h [6] was 0.012 µg/mL. It also gave a concentration at 0.25 h [7] of 8 ng/g, a concentration at 1 h [8] of 0.007 µg/mL and an IC50 [1] of 0.0971 µM. For the same compound, the concentration at 0.25 h [9] was 0.178 µg/mL, the half-life at 1 µM [4] was 9.1 min and the half-life at 1 µM [5] was 10.9 min.
For COc1cccc(-c2ccc(CO[C@H]3C[C@@H](N=C=S)C3)cc2)c1, the IC50 [1] was 0.022 µM and the Ratio [11] was 2.24 10^6/M/s.
For Cc1ccc(-c2ccc(CO[C@H]3C[C@@H](N=C=S)C3)cc2)cc1, the IC50 [1] was 0.026 µM and the Ratio [11] was 2.04 10^6/M/s.
For COc1ccc(-c2ccc(CO[C@H]3C[C@@H](N=C=S)C3)c(F)c2)cc1F, the IC50 [1] was 0.0206 µM, the Ratio [11] was 2.85 10^6/M/s and the inhibition [12] was 56.5%.
Work on COc1ccc(-c2ccc(CO[C@H]3CC[C@@H](N=C=S)CC3)cc2)cc1F yielded an IC50 [1] of 0.386 µM.
With COc1ccc(-c2ccc(CO[C@H]3C[C@@H](N=C=S)C3)c(F)c2)cc1OC the IC50 [1] was 0.0589 µM and the Ratio [11] was 7.97 10^5/M/s.
For COc1ccc(-c2ccc(CO[C@]3(C)C[C@H](N=C=S)C3)c(F)c2)cc1F, the IC50 [1] was 0.48 µM.
With S=C=N[C@H]1C[C@@H](OCc2ccc(-c3ccccc3)cc2)C1 the half-life at 1 µM [2] was 14.4 min, the IC50 [1] was 0.093 µM and the Ratio [11] was 7.23 10^6/M/s. It also gave a half-life at 1 µM [4] of 19.6 min and a half-life at 1 µM [5] of 16.1 min.
For COc1ccc(C23CC(C(=O)N[C@H]4C[C@@H](N=C=S)C4)(C2)C3)cc1, the IC50 [1] was 0.128 µM.
Work on CCOc1ccc(-c2ccc(CO[C@H]3C[C@@H](N=C=S)C3)c(F)c2)cc1F yielded an IC50 [1] of 0.0692 µM.
In the case of COc1ccc(-c2ccc3c(c2)CCN([C@H]2C[C@@H](N=C=S)C2)C3)cc1F, the IC50 [1] is reported as 0.089 µM.
COc1ccc(-c2cnc(C(=O)N[C@H]3C[C@@H](N=C=S)C3)cn2)cc1 showed an IC50 [1] of 0.853 µM.
Fc1cc(-c2cccc(C(F)(F)F)c2)ccc1CO[C@H]1C[C@@H](N=C=S)C1 showed a half-life at 1 µM [2] of 13.2 min, a concentration at 0.5 h [6] of 0.019 µg/mL and a concentration at 0.25 h [7] of 810 ng/g. For the same compound, the concentration at 1 h [8] was 0.331 µg/mL, the IC50 [1] was 0.0672 µM and the concentration at 0.25 h [9] was 1.01 µg/mL. It also gave a half-life at 1 µM [4] of 17.9 min and a half-life at 1 µM [5] of 16 min.
With COc1ccc(-c2ccc(S(=O)(=O)N[C@H]3C[C@@H](N=C=S)C3)nc2)cc1 the inhibition [3] was “inactive”, the concentration at 0.5 h [6] was 0.003 µg/mL and the concentration at 0.25 h [7] was 1150 ng/g. It also gave a concentration at 1 h [8] of 0.002 µg/mL, an IC50 [1] of 0.0063 µM and a concentration at 0.25 h [9] of 0.126 µg/mL.
With COc1ccc(-c2ncc(C(=O)N[C@H]3C[C@@H](N=C=S)C3)o2)cc1 the inhibition [10] was 51%.
In the case of COc1ccc(-c2ccc3c(c2)CN([C@H]2C[C@@H](N=C=S)C2)C3)cc1F, the IC50 [1] is reported as 0.0742 µM.
